Patent US20230167122A1, “PESTICIDALLY ACTIVE HETEROCYCLIC DERIVATIVES WITH SULFUR CONTAINING SUBSTITUENTS” (SYNGENTA CROP PROTECTION AG, priority 2020, published 2023)

How the values were obtained:
Assay type in all cases: in vivo
[1] = test system: Plutella xylostella (Diamond Back Moth); test: Example B8: Activity against Plutella xylostella (diamond back moth), L2 larvae, artificial diet; conditions: 120 h, application rate of 200 ppm, 5 days after infestation, read-out: effect in at least one of the two categories (mortality or growth inhibition)
Procedure: Example B8: Activity Against Plutella xylostella (Diamond Back Moth)
(§1) 24-well microtiter plates with artificial diet were treated with aqueous test solutions prepared from 10′000 ppm DMSO stock solutions by pipetting. After drying, the plates were infested with L2 larvae (10 to 15 per well). The samples were assessed for mortality and growth inhibition in comparison to untreated samples 5 days after infestation.

[2] = test system: Bemisia tabaci (Cotton White Fly); test: Example B1: Activity against Bemisia tabaci (cotton white fly), sprayed cotton leaf discs; conditions: foliar, 144 h, application rate of 200 ppm, adult white flies on cotton leaf discs, 6 days after incubation
Procedure: Example B1: Activity Against Bemisia tabaci (Cotton White Fly)
Cotton leaf discs were placed on agar in 24-well microtiter plates and sprayed with aqueous test solutions prepared from 10′000 ppm DMSO stock solutions. After drying the leaf discs were infested with adult white flies. The samples were checked for mortality 6 days after incubation.

[3] = test system: Nilaparvata lugens (Brown Plant Hopper); test: Example B11: Activity against Nilaparvata lugens (brown plant hopper), larvicide, feeding/contact; conditions: 168 h, application rate of 50 ppm, N3 nymphs on sprayed rice plants, 7 days after the treatment
Procedure: Example B11: Activity Against Nilaparvata lugens (Brown Plant Hopper) Larvicide, Feeding/Contact
Rice plants were treated with the diluted test solutions in a spray chamber. After drying plants were infested with ˜20 N3 nymphs. 7 days after the treatment samples were assessed for mortality and growth regulation.

[4] = test system: Myzus persicae (Green Peach Aphid); test: Example B6: Activity against Myzus persicae (green peach aphid), sprayed sunflower leaf discs; conditions: foliar, 144 h, application rate of 200 ppm, aphid population of mixed ages on sunflower leaf discs, 6 days after infestation
Procedure: Example B6: Activity Against Myzus persicae (Green Peach Aphid)
Sunflower leaf discs were placed on agar in a 24-well microtiter plate and sprayed with aqueous test solutions prepared from 10′000 ppm DMSO stock solutions. After drying, the leaf discs were infested with an aphid population of mixed ages. The samples were assessed for mortality 6 days after infestation.

[5] = test system: Euschistus heros (Neotropical Brown Stink Bug); test: Example B3: Activity against Euschistus heros (neotropical brown stink bug), sprayed soybean leaf; conditions: 120 h, application rate of 200 ppm, N-2 nymphs on soybean leaf, 5 days after infestation, read-out: effect in at least one of the two categories (mortality or growth inhibition)
Procedure: Example B3: Activity Against Euschistus heros (Neotropical Brown Stink Bug)
Soybean leaf on agar in 24-well microtiter plates were sprayed with aqueous test solutions prepared from 10′000 ppm DMSO stock solutions. After drying the leaf were infested with N-2 nymphs. The samples were assessed for mortality and growth inhibition in comparison to untreated samples 5 days after infestation.

[6] = test system: Nilaparvata lugens (Brown Plant Hopper); test: Example B12: Activity against Nilaparvata lugens (brown plant hopper), larvicide, systemic into water; conditions: 168 h, application rate of 12.5 ppm, systemic into nutritive solution, rice plants, N3 nymphs, 7 days after infestation
Procedure: Example B12: Activity Against Nilaparvata lugens (Brown Plant Hopper) Larvicide, Systemic into Water
Rice plants cultivated in a nutritive solution were treated with the diluted test solutions into nourishing cultivation system. 1 day after application plants were infested with ˜20 N3 nymphs. 7 days after infestation samples were assessed for mortality and growth regulation.

[7] = test system: Carpocapsa (Cydia) pomonella (Codling Moth); test: Example B15: Activity against Carpocapsa (Cydia) pomonella (codling moth), larvicide, feeding/contact; conditions: 336 h, application rate of 12.5 ppm, L1 larvae on sprayed diet cubes, 14 days after infestation, read-out: effect in at least one of the two categories (mortality or growth inhibition)
Procedure: Example B15: Activity Against Carpocapsa (Cydia) pomonella (Codling Moth), Larvicide, Feeding/Contact
Diet cubes coated with paraffin were sprayed with diluted test solutions in an application chamber. After drying off the treated cubes (10 replicates) were infested with 1 L1 larvae. Samples were incubated at 26-27° C. and checked 14 days after infestation for mortality and growth inhibition.

[8] = test system: Myzus persicae (Green Peach Aphid); test: Example B7: Activity against Myzus persicae (green peach aphid), roots of pea seedlings in test solution; conditions: 144 h, test rate of 24 ppm, roots of infested pea seedlings in test solution, 6 days
Procedure: Example B7: Activity Against Myzus persicae (Green Peach Aphid)
Roots of pea seedlings infested with an aphid population of mixed ages were placed directly in the aqueous test solutions prepared from 10′000 DMSO stock solutions. The samples were assessed for mortality 6 days after placing seedlings in test solutions.

[9] = test system: Diabrotica balteata (Corn Root Worm); test: Example B2: Activity against Diabrotica balteata (corn root worm), sprayed maize sprouts; conditions: 96 h, application rate of 200 ppm, L2 larvae on maize sprouts, 4 days after infestation, read-out: effect in at least one of the two categories (mortality or growth inhibition)
Procedure: Example B2: Activity Against Diabrotica balteata (Corn Root Worm)
as §1, with “Maize sprouts placed onto an agar layer in 24-well” for “24-well”, “plates” for “plates with artificial diet”, “spraying.” for “pipetting.”, “(6” for “(10”, “10” for “15”, “4” for “5”

[10] = test system: Spodoptera littoralis (Egyptian Cotton Leaf Worm); test: Example B9: Activity against Spodoptera littoralis (Egyptian cotton leaf worm), sprayed cotton leaf discs; conditions: foliar, 72 h, application rate of 200 ppm, L1 larvae on cotton leaf discs, 3 days after infestation
Procedure: Example B9: Activity Against Spodoptera littoralis (Egyptian Cotton Leaf Worm)
Cotton leaf discs were placed onto agar in 24-well microtiter plates and sprayed with aqueous test solutions prepared from 10′000 ppm DMSO stock solutions. After drying the leaf discs were infested with five L1 larvae. The samples were assessed for mortality, anti-feeding effect, and growth inhibition in comparison to untreated samples 3 days after infestation. Control of Spodoptera littoralis by a test sample is given when at least one of the categories mortality, anti-feedant effect, and growth inhibition is higher than the untreated sample.

[11] = test system: Tetranychus urticae (Two-Spotted Spider Mite); test: Example B10: Activity against Tetranychus urticae (two-spotted spider mite), sprayed bean leaf discs; conditions: foliar, 192 h, application rate of 200 ppm, mixed population (mobile stages) on bean leaf discs, 8 days after infestation
Procedure: Example B10: Activity Against Tetranychus urticae (Two-Spotted Spider Mite)
Bean leaf discs on agar in 24-well microtiter plates were sprayed with aqueous test solutions prepared from 10′000 ppm DMSO stock solutions. After drying the leaf discs were infested with a mite population of mixed ages. The samples were assessed for mortality on mixed population (mobile stages) 8 days after infestation.

CCS(=O)(=O)c1cc(OC(C)(C)C#N)c(C)nc1-c1nc2cc(C(F)(F)F)nnc2n1C [Compound P11, 2-[[5-ethylsulfonyl-2-methyl-6-[7-methyl-3-(trifluoromethyl)imidazo[4,5-c]pyridazin-6-yl]-3-pyridyl]oxy]-2-methyl-propanenitrile]
≥ 80%: percent effect (mortality or growth inhibition) at 200 ppm [1] | mortality at 200 ppm [2] | mortality at 50 ppm [3] | mortality at 200 ppm [4] | percent effect (mortality or growth inhibition) at 200 ppm [5] | mortality at 12.5 ppm [6] | percent effect (mortality or growth inhibition) at 12.5 ppm [7] | mortality at 24 ppm [8] | percent effect (mortality or growth inhibition) at 200 ppm [9] | percent control (mortality, anti-feedant effect or growth inhibition) at 200 ppm [10]

CCS(=O)(=O)c1cc(OC(C)(C)C#N)cnc1-c1nc2cc(C(F)(F)F)n(OC)c(=O)c2n1C [Compound P5, 2-[[5-ethylsulfonyl-6-[5-methoxy-3-methyl-4-oxo-6-(trifluoromethyl)imidazo[4,5-c]pyridin-2-yl]-3-pyridyl]oxy]-2-methyl-propanenitrile]
≥ 80%: percent effect (mortality or growth inhibition) at 200 ppm [1] | mortality at 200 ppm [2] | mortality at 200 ppm [4] | percent effect (mortality or growth inhibition) at 200 ppm [5] | mortality at 12.5 ppm [6] | percent effect (mortality or growth inhibition) at 12.5 ppm [7] | mortality at 24 ppm [8] | percent effect (mortality or growth inhibition) at 200 ppm [9] | percent control (mortality, anti-feedant effect or growth inhibition) at 200 ppm [10] | mortality at 200 ppm [11]
